# Assays:
# [1] = test system: HT-1080-FAP cells; assay: Determination of IC50 in cell experiment (competition with ^68Ga-FAPI-04); type: cell-based; conditions: Homo sapiens; vs 0.75 nM ^68Ga-FAPI-04, 37° C., 1 hour
# Description: Cell model: A human fibrosarcoma cell line (HT-1080-FAP) with high FAP expression was constructed by transfection of an FAP plasmid into a human fibrosarcoma cell line (HT-1080) by WuXi Biologics (China).
# HT-1080-FAP cells were inoculated into a 24-well plate 24 hours in advance, with the density being about 30% (calculated and estimated), 10^5 cells (countable) per well. 0.5 mL of a complete medium was added. The medium was changed to a serum-free medium. 12 groups of FAPI-CB-01 solutions with a concentration gradient of 0-5000 nM were set up, with internal replicates n=4 for each group. […] 0.75 nM ^68Ga-FAPI-04 was added to each well, followed by incubation at 37° C. for 1 hour. After washing twice with cold PBS and lysis, the radioactivity count was measured.
# [2] = test system: FAP, DPP-4 and PREP; assay: Binding selectivity to homologous proteins (competitive inhibition of enzyme substrate, IC50); type: biochemical; conditions: from IC50 values, pNA release
# Description: Taking FAP target as an example, homologous proteins thereof include, but are not limited to, DPP-4 and PREP. The structural similarity thereof may lead to a decreased binding selectivity of the modified precursor molecules for the homologous proteins, resulting in an increased uptake in non-target organs.
# The binding selectivity for homologous proteins was determined by a competitive inhibition experiment on the substrate of the enzymes, and the binding/inhibition selectivity thereof is indirectly evaluated by the median inhibitory concentration (IC50) values obtained.
# By reference to the method described in Extended Structure-Activity Relationship and Pharmacokinetic Investigation of (4-Quinolinoyl)glycyl-2-cyanopyrrolidine Inhibitors of Fibroblast Activation Protein (FAP). Journal of Medicinal Chemistry 57, 3053-3074 (2014), published by Jansen et al., the initial rate of p-nitroaniline (pNA) released from the substrate (absorption at 405 nm) was measured by using a microplate reader (PerkinElmer, Victor™ X5) at 37° C. in a final volume of 200 μL to determine the kinetic properties of the enzyme activity. […]
# The determination method for IC50 on FAP is as follows: the substrate Z-Gly-Pro-p-nitroanilide (50 μM, Cat #G-58468, HEOWNS) was used to measure FAP activity at pH 7.4. […] The mixture was then incubated at 37° C. for 6 hours, and the release of pNA was then measured. […]
smiles,measurement,setting,value
N#C[C@@H]1CC(F)(F)CN1C(=O)CNC(=O)c1ccnc2ccc(OCCCN3CCN(C(=O)[C@H](CCCCNC(=O)c4ccc(OS(=O)(=O)F)cc4)NC(=O)CN4CCN(CC(=O)O)CCN(CC(=O)O)CCN(CC(=O)O)CC4)CC3)cc12 [FAPI-CB-01],IC50,[1],11.6 ± 0.32 nM
same,selectivity to FAP protein over homologous proteins DPP-4 and PREP,[2],high selectivity

# Source: US20260137820A1, “TRIFUNCTIONAL COMPOUND AND USE THEREOF” (PEKING UNIVERSITY, priority 2022, published 2026)
